Values after ≈ are worked out from the molar mass of the structure shown.
Legend:
Assay in all cases: In vitro antibacterial evaluation: minimum inhibitory concentration (MIC), broth dilution method
Assay type in all cases: cell-based
[1] = test system: Enterococcus sp.
Protocol: (§1) The minimum inhibitory concentration (MIC), the lowest concentration of the antibiotic which inhibits growth of the test organism, is determined by the broth dilution method using Muller-Hinton II […] (Baltimore Biological Laboratories) following the recommendations of the National Committee for Clinical Laboratory Standards [Methods for dilution antimicrobial susceptibility tests for bacteria that grow aerobically, approved standard M7-A2, National Committee for Clinical Laboratory Standards, Villanova, Pa].
(§2) An inoculum level of 5×10^5 CFU/mL, and a range of antibiotic concentrations (64-0.06 μg/mL) is used. […] The test organisms include a spectrum of Gram-positive bacteria comprised of Staphylococcus sp., Streptococcus sp. and Enterococcus sp. These organisms include recent clinical isolates that are resistant to methicillin, penicillin and/or vancomycin.

[2] = test system: Escherichia coli
Protocol: as §1, §2

[3] = test system: Staphylococcus sp.; conditions: broth dilution, 18 hours at 35° C.
Protocol: as §1, §2

[4] = test system: Streptococcus sp.
Protocol: as §1, §2

CCOc1cc(C2OCC3OC(OC4C(CO)OC(Oc5ccc(CC6NC(=O)C(C(C)c7ccccc7)NC(=O)CNC(=O)C(CO)NC(=O)C(C(O)C7CNC(=N)N7C7OC(CO)C(O)C(O)C7O)NC(=O)C(C(O)C7CNC(=N)N7)NC6=O)cc5)C(O)C4O)C(O)C(O)C3O2)ccc1OC (stereo not drawn) [Example 152, Cyclo[glycyl-β-methylphenylalanyl-O-[4-O-[4,6-O-(3-ethoxy-4-methoxybenzylidene)hexopyranosyl)hexopyranosyl]tyrosyl-3-(2-iminoimidazolidin-4-yl)seryl-3-(3-hexopyranosyl-2-iminoimidazolidin-4-yl)serylseryl]]
MIC Enterococcus faecalis (ATCC 29212) ([1]; strain ATCC 29212): 32 µg/mL (≈ 22 µM)
MIC Enterococcus faecalis (GC 2242) ([1]; strain GC 2242): 32 µg/mL (≈ 22 µM)
MIC Enterococcus faecium (GC 2243) ([1]; strain GC 2243): 32 µg/mL (≈ 22 µM)
MIC Enterococcus faecalis (GC 2691) ([1]; strain GC 2691): 32 µg/mL (≈ 22 µM)
MIC Enterococcus faecalis (GC 3059) ([1]; strain GC 3059): 32 µg/mL (≈ 22 µM)
MIC Enterococcus faecalis (GC 4552) ([1]; strain GC 4552): 32 µg/mL (≈ 22 µM)
MIC Enterococcus faecalis (GC 4553) ([1]; strain GC 4553): 64 µg/mL (≈ 43.9 µM)
MIC Enterococcus faecalis (GC 4554) ([1]; strain GC 4554): 32 µg/mL (≈ 22 µM)
MIC Enterococcus faecium (GC 4556) ([1]; strain GC 4556): 32 µg/mL (≈ 22 µM)
MIC Enterococcus faecium (GC 4557) ([1]; strain GC 4557): 16 µg/mL (≈ 11 µM)
MIC Enterococcus avium (GC 4558) ([1]; strain GC 4558): 32 µg/mL (≈ 22 µM)
MIC Enterococcus faecalis (GC 6189) ([1]; strain GC 6189): 32 µg/mL (≈ 22 µM)
MIC Escherichia coli (ATCC 25922) ([2]; strain ATCC 25922): >64 µg/mL
MIC Escherichia coli (GC 4559) ([2]; strain GC 4559): >64 µg/mL
MIC Escherichi coli (GC 4560) ([2]; strain GC 4560): 8 µg/mL (≈ 5.49 µM)
MIC Coagulase Negative Staphylococcus (GC 4547) ([3]; 5×10^5 CFU/mL): 8 µg/mL (≈ 5.49 µM)
MIC Coagulase Negative Staphylococcus (GC 4548) ([3]; 5×10^5 CFU/mL): 8 µg/mL (≈ 5.49 µM)
MIC Coagulase Negative Staphylococcus (GC 4549) ([3]; 5×10^5 CFU/mL): 8 µg/mL (≈ 5.49 µM)
MIC Coagulase Negative Staphylococcus (GC 4551) ([3]; 5×10^5 CFU/mL): 16 µg/mL (≈ 11 µM)
MIC Coagulase Negative Staphylococcus (GC 6257) ([3]; 5×10^5 CFU/mL): 8 µg/mL (≈ 5.49 µM)
MIC Staphylococcus aureus (ATCC 29213) ([3]; 5×10^5 CFU/mL): 16 µg/mL (≈ 11 µM)
MIC Staphylococcus aureus (GC 1131) ([3]; 5×10^5 CFU/mL): 16 µg/mL (≈ 11 µM)
MIC Staphylococcus aureus (GC 3051) ([3]; 5×10^5 CFU/mL): 16 µg/mL (≈ 11 µM)
MIC Staphylococcus aureus (GC 3053) ([3]; 5×10^5 CFU/mL): 32 µg/mL (≈ 22 µM)
MIC Staphylococcus aureus (GC 4541) ([3]; 5×10^5 CFU/mL): 16 µg/mL (≈ 11 µM)
MIC Staphylococcus aureus (GC 4542) ([3]; 5×10^5 CFU/mL): 16 µg/mL (≈ 11 µM)
MIC Staphylococcus aureus (GC 4544) ([3]; 5×10^5 CFU/mL): 16 µg/mL (≈ 11 µM)
MIC Staphylococcus aureus (GC 4545) ([3]; 5×10^5 CFU/mL): 8 µg/mL (≈ 5.49 µM)
MIC Staphylococcus aureus-SMITH (GC 4543) ([3]; 5×10^5 CFU/mL): 8 µg/mL (≈ 5.49 µM)
MIC Staphylococcus haemolyticus (GC 4546) ([3]; 5×10^5 CFU/mL): 8 µg/mL (≈ 5.49 µM)
MIC Staphylococcus aureus (ATCC 29213) ([3]; strain ATCC 29213): 16 µg/mL (≈ 11 µM)
MIC Staphylococcus aureus (GC 1131) ([3]; strain GC 1131): 16 µg/mL (≈ 11 µM)
MIC Staphylococcus aureus (GC 3051) ([3]; strain GC 3051): 16 µg/mL (≈ 11 µM)
MIC Staphylococcus aureus (GC 3053) ([3]; strain GC 3053): 32 µg/mL (≈ 22 µM)
MIC Staphylococcus aureus (GC 4541) ([3]; strain GC 4541): 16 µg/mL (≈ 11 µM)
MIC Staphylococcus aureus (GC 4542) ([3]; strain GC 4542): 16 µg/mL (≈ 11 µM)
MIC Staphylococcus aureus-SMITH (GC 4543) ([3]; strain GC 4543): 8 µg/mL (≈ 5.49 µM)
MIC Staphylococcus aureus (GC 4544) ([3]; strain GC 4544): 16 µg/mL (≈ 11 µM)
MIC Staphylococcus aureus (GC 4545) ([3]; strain GC 4545): 8 µg/mL (≈ 5.49 µM)
MIC Staphylococcus haemolyticus (GC 4546) ([3]; strain GC 4546): 8 µg/mL (≈ 5.49 µM)
MIC Coagulase Negative Staphylococcus (GC 4547) ([3]; strain GC 4547): 8 µg/mL (≈ 5.49 µM)
MIC Coagulase Negative Staphylococcus (GC 4548) ([3]; strain GC 4548): 8 µg/mL (≈ 5.49 µM)
MIC Coagulase Negative Staphylococcus (GC 4549) ([3]; strain GC 4549): 8 µg/mL (≈ 5.49 µM)
MIC Coagulase Negative Staphylococcus (GC 4551) ([3]; strain GC 4551): 16 µg/mL (≈ 11 µM)
MIC Coagulase Negative Staphylococcus (GC 6257) ([3]; strain GC 6257): 8 µg/mL (≈ 5.49 µM)
MIC Streptococcus pneumoniae (ATCC 6301) ([4]; strain ATCC 6301): 2 µg/mL (≈ 1.37 µM)
MIC Streptococcus pneumoniae (GC 1894) ([4]; strain GC 1894): 0.5 µg/mL (≈ 0.343 µM)
MIC Streptococcus pyogenes (GC 4563) ([4]; strain GC 4563): 4 µg/mL (≈ 2.74 µM)
MIC Streptococcus agalactiae (GC 4564) ([4]; strain GC 4564): 8 µg/mL (≈ 5.49 µM)
MIC Streptococcus pneumoniae (GC 4565) ([4]; strain GC 4565): 2 µg/mL (≈ 1.37 µM)
